Measurements reported in patent US20190144368A1, “Compounds and compositions for biofilm prevention” (INHIBIO AS, priority 2016, published 2019).
Where “and” joins values, the source holds several entries; their conditions need not be identical. Identical values can stand only once.

Assays:
[1] = system: Gram positive bacteria (three Staphylococcus aureus strains); test: Biofilm formation in polystyrene microtiter plates (crystal violet, OD595), Gram positive bacteria; assay type: cell-based; settings: one day at 37 °C
Method: (§1) All experiments were performed by using sterile 96-wells polystyrene microtiter plates (Nunc, Nuncleon, Roskilde, Denmark) under conditions promoting biofilm formation by the different bacterial genera. The Inhibio compound preparations of the invention; 1,3-cyclohexanedione, 1,4-cyclohexanedione, cyclopentanone, 5-ethylcyclohexane-1,3-dione and 5-methyl-1,3 cyclohexanedione 98% were solved directly in Tryptic Soy Broth (TSB) 1+1 or Liquid Microbiology Broth (LB) broth without NaCl (LB^wo/NaCl) to obtain the test concentrations, i.e. from 1 mg/ml to 10 mg/ml.
Three Staphylococcus aureus strains of animal origin were used in this study. All strains were stored at −80° C. in Brain Heart Infusion Broth (BHI) (Difco, BD, Franklin Lakes, N.J., USA) supplemented with 15% glycerine (Merck KGaA, Darmstadt, Germany) and were recovered on blood agar at 37.0±1.0° C. The bacterial cultures were then transferred into TSB and were incubated statically overnight at 37.0±1.0° C. to obtain an overnight working culture. A total of 2 μl of this suspension was transferred to each 96 wells of polystyrene microtiter plates (Nunc, Nuncleon, Roskilde, Denmark) containing 198 μl TSB 1+1 with dissolved Inhibio compounds in the following concentrations: 0 mg/ml, 1 mg/ml and 10 mg/ml for 1,3-cyclohexanedione; 0 mg/ml and 10 mg/ml for 1,4-cyclohexanedione; and 0 mg/ml, 1 mg/ml, 2 mg/ml and 10 mg/ml for 5-ethylcyclohexane-1,3-dione and 5-Methyl-1,3-cyclohexanedione in the total amount of broth. Three parallels of each strain were used and the microtiter plates were incubated statically for one day, at 37±1.0° C. After incubation, OD595 was measured in a microplate photometer (Multiscan EX; Thermo Fisher Scientific Inc, Waltham, Mass., USA) before the plates were gently washed three times with 290 μl tap water. The plates were dried in room temperature before addition of 220 μl 1% crystal violet (Sigma-Aldrich, St. Louis, Mo., USA). After 30 minutes incubation in room temperature, the plates were washed three times with tap water before the addition of 220 μl ethanol:acetone (70:30 w:w) to dissolve the bound dye. The plates were incubated for 10 minutes in room temperature before OD595 was measured after the bound dye was dissolved using ethanol:acetone. For each strain, the result was calculated by subtracting the median OD595 of the three parallels of the control (test broth only) from the median OD595 of the three parallels of sample. Further, the average result of all three Gram positive strains included in the study were calculated. Three independent experiments were performed and the average was evaluated.

[2] = system: SRB isolate ATCC 29579 Desulfovibrio vulgaris subspecies vulgaris; test: Biofilm produced by SRB (sulphate reducing bacteria) on carbon steel coupon in fluids; assay type: cell-based; settings: 10 mg/ml, 20 °C for 12 days
Method: One SRB isolate (the culture collection strain: ATCC 29579 Desulfovibrio vulgaris subspecies vulgaris) was tested. 1,4-cyclohexanedione and cyclopentanone were diluted in the culture medium ATCC 1249 to a concentration of 10 mg/ml (1%) and added to each their 50 ml Falcon centrifugal tube. A third tube, with 10 ml of medium only (ATCC 1249) was included as a control. 50 μl SRB starting culture was added to each of the three tubes together with a carbon steel coupon. Biofilm was formed on the coupon by incubating at 20° C. for 12 days. After incubation, the coupons were washed in 40 ml sterile saline to remove loosely adhered cells. A sample from this fluid was injected into SRB medium and blackening of the medium was visualized, showing that there were still free-floating bacteria present.

[3] = system: Gram negative bacteria (Salmonella isolates); test: Biofilm formation in polystyrene microtiter plates (crystal violet, OD595), Gram negative bacteria; assay type: cell-based, Salmonella ser. Typhimurium, Salmonella ser. Agona; settings: 10 mg/ml, two days at 20 °C
Method: as §1
(§2) One Salmonella ser. Typhimurium (S. Typhimurium), two Salmonella ser. Agona (S. Agona) and two Escherichia coli (E. coli) isolates were used in these studies. The studies performed using 1,3-cyclohexanedione and 1,4-cyclohexanedione were done on Salmonella isolates only. The studies comparing Menthone to 1,3-cyclohexanedione were using two E. coli strains, E. coli 1242 and E. coli 1153, see FIG. 11. The Salmonella isolates were isolated from Norwegian feed factories except one S. Typhimurium strain which was a culture collection strain (ATCC 14028). The E. coli isolates were of animal origin. All strains were stored at −80° C. in BHI supplemented with 15% glycerine and were recovered on blood agar at 37.0±1.0° C. The bacterial cultures were then transferred into LB broth and incubated statically overnight at 37.0±1.0° C. to obtain an overnight working culture. A total of 30 μl of this suspension was transferred to each well in 96 wells polystyrene microtiter plates (Nunc, Nuncleon, Roskilde, Denmark) in triplets. The wells were containing 100 μl LB^wo/NaCl (bacto-tryptone 10 g/l, yeast extract 5 g/l) with 1,3-cyclohexanedione dissolved in concentration 0 mg/ml, 1 mg/ml and 10 mg/ml in the total amount of broth and 1,4-cyclohexanedione and cyclopentanone at 0 mg/ml and 10 mg/ml. The microtiter plates were incubated statically for two days, at 20±1.0° C. After incubation, OD595 was measured before the plates were gently washed one time with 150 μl tap water. The plates were dried in room temperature before addition of 140 μl 1% crystal violet (Sigma-Aldrich). After 30 minutes incubation in room temperature, the plates were washed three times with tap water before addition of 140 μl ethanol:acetone (70:30 w:w) and incubated for another 10 minutes in room temperature. OD595 was measured in a microplate photometer (Multiscan EX) after the bound dye was dissolved using ethanol:acetone. For each strain, the result was calculated by subtracting the median OD595 of the three parallels of the control (test broth only) from the median OD595 of the three parallels of sample. Further, the averages of the Gram negative strains were calculated. Three independent experiments were performed and the average was evaluated.

[4] = system: E. coli 1242 and E. coli 1153; test: Biofilm formation in microtiter plates, comparison of 1,3-cyclohexanedione and menthone; assay type: cell-based, Escherichia coli; settings: 1 mg/ml, two values, one per strain (E. coli 1242, E. coli 1153)
Method: as §1
as §2, with “A total of 30 μl of this suspension was transferred to each well in 96 wells polystyrene microtiter plates (Nunc, Nuncleon, Roskilde, Denmark) in triplets. The wells were containing 100 μl LB^wo/NaCl (bacto-tryptone 10 g/l, yeast extract 5 g/l) with 1,3-cyclohexanedione dissolved in concentration 0 mg/ml, 1 mg/ml and 10 mg/ml in the total amount of broth and 1,4-cyclohexanedione and cyclopentanone at 0 mg/ml and 10 mg/ml. The microtiter plates were incubated statically for two days, at 20±1.0° C.” left out, “The plates were dried in room temperature before addition of 140 μl 1% crystal violet (Sigma-Aldrich). After 30 minutes incubation in room temperature, the plates were washed three times with tap water before addition of 140 μl ethanol:acetone (70:30 w:w) and incubated for another 10 minutes in room temperature.” left out

| Structure (SMILES) | decrease in biofilm formation, percentage of the control ([1]; 1 mg/ml) [%] | decrease in biofilm formation, percentage of the control ([1]; 2 mg/ml) [%] | decrease in biofilm formation, percentage of the control ([1]; 10 mg/ml) [%] | biofilm visualized on carbon steel coupon [2] | decrease in biofilm formation, percentage of the control [3] [%] | decrease in biofilm formation [4] |
| --- | --- | --- | --- | --- | --- | --- |
| CC1CC(=O)CC(=O)C1 [5-methyl-1,3-cyclohexanedione] | 32 | 85 | 98 | – | – | – |
| CCC1CC(=O)CC(=O)C1 [5-ethylcyclohexane-1,3-dione] | 55 | 74 | 98 | – | – | – |
| O=C1CCCC1 [cyclopentanone, Cyclopentanone] | – | – | – | only scarce amount of biofilm could be visualized | 77 | – |
| O=C1CCC(=O)CC1 [1,4-cyclohexanedione] | – | – | 53 | only scarce amount of biofilm could be visualized | 91 | – |
| CC1CCC(C(C)C)C(=O)C1 (stereo not drawn) [menthone, 2-isopropyl-5-methylcyclohexane-1-on, reference compound] | – | – | – | – | – | 27% and 48% |
